Reference: patent publication US20220274979A1 (Bayer Pharma Aktiengesellschaft, priority 2018, published 2022)

biological target: T1, Epidermal Growth Factor Receptor (EGFR) (Homo sapiens, UniProt P00533); assay: EGFR kinase assay (TR-FRET); format: biochemical; conditions: 10 μM ATP; read-out: EGFR kinase inhibition IC50
T1 construct: purchased Sigma-Aldrich E3641
In short: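 EGFR purified from A431 cells pre-incubated 15 min with compound, then reacted 20 min at 22 °C with 10 μM ATP and 1 μM biotinylated peptide (final) in HEPES pH 7.0 with Mg2+/Mn2+. Phosphopeptide detected by TR-FRET (Tb anti-phosphotyrosine/streptavidin-XL665), 665/620 nm emission ratio.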

T1 sequence (P00533 25-1210): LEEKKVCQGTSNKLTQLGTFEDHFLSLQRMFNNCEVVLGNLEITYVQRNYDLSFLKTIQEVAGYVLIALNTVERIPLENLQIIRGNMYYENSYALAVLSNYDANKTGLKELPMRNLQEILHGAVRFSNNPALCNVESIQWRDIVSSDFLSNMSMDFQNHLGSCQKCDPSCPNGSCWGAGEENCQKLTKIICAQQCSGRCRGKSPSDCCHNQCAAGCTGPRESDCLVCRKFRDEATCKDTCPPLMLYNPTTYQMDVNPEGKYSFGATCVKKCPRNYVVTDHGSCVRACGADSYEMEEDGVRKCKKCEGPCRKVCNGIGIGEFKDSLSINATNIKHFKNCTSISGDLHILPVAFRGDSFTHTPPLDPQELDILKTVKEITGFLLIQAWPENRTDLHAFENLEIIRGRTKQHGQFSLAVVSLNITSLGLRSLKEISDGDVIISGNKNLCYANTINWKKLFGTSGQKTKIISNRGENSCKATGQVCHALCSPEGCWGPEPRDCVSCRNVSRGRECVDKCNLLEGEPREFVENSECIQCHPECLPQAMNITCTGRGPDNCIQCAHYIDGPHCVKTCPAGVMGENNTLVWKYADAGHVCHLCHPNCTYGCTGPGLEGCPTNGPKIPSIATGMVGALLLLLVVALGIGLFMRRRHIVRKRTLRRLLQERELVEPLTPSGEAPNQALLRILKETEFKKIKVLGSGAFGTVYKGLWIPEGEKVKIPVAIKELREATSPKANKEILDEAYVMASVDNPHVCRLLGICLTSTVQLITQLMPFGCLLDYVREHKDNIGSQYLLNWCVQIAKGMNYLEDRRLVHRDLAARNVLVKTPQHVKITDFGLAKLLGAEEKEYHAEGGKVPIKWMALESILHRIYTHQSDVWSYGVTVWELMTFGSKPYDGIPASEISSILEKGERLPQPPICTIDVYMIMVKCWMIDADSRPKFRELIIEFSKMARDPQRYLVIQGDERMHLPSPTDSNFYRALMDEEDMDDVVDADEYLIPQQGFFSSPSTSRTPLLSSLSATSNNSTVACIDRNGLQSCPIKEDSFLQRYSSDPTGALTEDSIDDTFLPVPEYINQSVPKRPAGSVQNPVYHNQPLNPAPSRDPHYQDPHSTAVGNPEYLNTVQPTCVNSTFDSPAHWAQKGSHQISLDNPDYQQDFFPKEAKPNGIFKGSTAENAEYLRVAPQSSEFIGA

Compound | IC50 [µM]
Cc1nc(NC(C)c2ccc(-c3ccccc3CN(C)C)s2)c2cc(N3CC(N)C3)ncc2n1 (centres unmarked) [Example 93, 6-(3-aminoazetidin-1-yl)-N-[1-(5-{2-[(dimethylamino)methyl]phenyl}thiophen-2-yl)ethyl]-2-methylpyrido[3,4-d]pyrimidin-4-amine] | > 20
Cc1nc(NC(C)c2ccc(-c3ccccc3CO)s2)c2cc(F)ncc2n1 (centres unmarked) [Example 68, [2-(5-{1-[(6-fluoro-2-methylpyrido[3,4-d]pyrimidin-4-yl)amino]ethyl}thiophen-2-yl)phenyl]methanol] | > 20
Cc1nc(N[C@H](C)c2cccc(Br)c2)c2cc(NCCN3CCOCC3)ncc2n1 [Example 39] | > 20
Cc1nc(NC(C)c2ccc(-c3ccccc3CN(C)C)s2)c2cc(N3CCC3)ncc2n1 (centres unmarked) [Example 71, 6-(azetidin-1-yl)-N-[1-(5-{2-[(dimethylamino)methyl]phenyl}thiophen-2-yl)ethyl]-2-methylpyrido[3,4-d]pyrimidin-4-amine] | > 20
Cc1nc(N[C@H](C)c2cccc(Br)c2)c2nc(OCc3ccccc3)ncc2n1 [Example 20, 6-(benzyloxy)-N-[(1R)-1-(3-bromophenyl)ethyl]-2-methylpyrimido[5,4-d]pyrimidin-4-amine] | > 20
Cc1nc(NC(C)c2ccc(-c3ccccc3CN(C)C)s2)c2cc(OCC3CC3)ncc2n1 (centres unmarked) [Example 73, 6-(cyclopropylmethoxy)-N-[1-(5-{2-[(dimethylamino)methyl]phenyl}thiophen-2-yl)ethyl]-2-methylpyrido[3,4-d]pyrimidin-4-amine] | > 20
CCOc1cc2c(NC(C)c3ccc(-c4ccccc4CN(C)C)s3)nc(C)nc2cn1 (centres unmarked) [Example 63, N-[1-(5-{2-[(dimethylamino)methyl]phenyl}thiophen-2-yl)ethyl]-6-ethoxy-2-methylpyrido[3,4-d]pyrimidin-4-amine] | > 20
CC(=O)NCCNc1cc2c(NC(C)c3ccc(-c4ccccc4CN(C)C)s3)nc(C)nc2cn1 (centres unmarked) [Example 51, N-{2-[(4-{[1-(5-{2-[(dimethylamino)methyl]phenyl}thiophen-2-yl)ethyl]amino}-2-methylpyrido[3,4-d]pyrimidin-6-yl)amino]ethyl}acetamide] | > 20
CSc1cc2c(NC(C)c3ccc(-c4ccccc4CN(C)C)s3)nc(C)nc2cn1 (centres unmarked) [Example 59, N-[1-(5-{2-[(dimethylamino)methyl]phenyl}thiophen-2-yl)ethyl]-2-methyl-6-(methylsulfanyl)pyrido[3,4-d]pyrimidin-4-amine] | > 20
CCOc1cc2c(N[C@H](C)c3ccc(C#N)cc3)nc(C)nc2cn1 [Example 18, 4-{(1R)-1-[(6-ethoxy-2-methylpyrido[3,4-d]pyrimidin-4-yl)amino]ethyl}benzonitrile] | > 20
Cc1nc(NC(C)c2ccc(-c3ccccc3CN(C)C)s2)c2cc(N3CC(NS(=O)(=O)c4ccccc4)C3)ncc2n1 (centres unmarked) [Example 94, N-[1-(4-{[1-(5-{2-[(dimethylamino)methyl]phenyl}thiophen-2-yl)ethyl]amino}-2-methylpyrido[3,4-d]pyrimidin-6-yl)azetidin-3-yl]benzenesulfonamide] | > 20
COc1cc2c(NC(C)c3ccc(-c4ccccc4CN(C)C)s3)nc(C)nc2cn1 (centres unmarked) [Example 64, N-[1-(5-{2-[(dimethylamino)methyl]phenyl}thiophen-2-yl)ethyl]-6-methoxy-2-methylpyrido[3,4-d]pyrimidin-4-amine] | > 20
Cc1nc(NC(C)c2ccc(-c3ccccc3CN(C)C)s2)c2cc(NCCn3ccnc3)ncc2n1 (centres unmarked) [Example 56, N4-[1-(5-{2-[(dimethylamino)methyl]phenyl}-2-thienyl)ethyl]-N6-[2-(1H-imidazol-1-yl)ethyl]-2-methylpyrido[3,4-d]pyrimidine-4,6-diamine] | > 20
Cc1nc(NC(C)c2ccc(-c3ccccc3CN(C)C)s2)c2cc(N3CC(NC(=O)c4ccccc4)C3)ncc2n1 (centres unmarked) [Example 88, N-[1-(4-{[1-(5-{2-[(dimethylamino)methyl]phenyl}thiophen-2-yl)ethyl]amino}-2-methylpyrido[3,4-d]pyrimidin-6-yl)azetidin-3-yl]benzamide] | > 20
